Measurements published in patent US6602888B2, “Use of α1C specific compounds to treat benign prostatic hyperplasia” (Synaptic Pharmaceutical Corporation, priority 1992, dated 2003).
Like-named read-outs stand apart in the source and are kept apart here.

Columns and labels:
[1] = molecular target: T1, human α2B adrenergic receptor (Homo sapiens, UniProt P18089); test: Competition binding, [3H]rauwolscine, α2B receptor; settings: for Ki: read-out: Alpha-2 Adrenergic a2b (pK1) (converted)
T1 sequence (P18089 1-450): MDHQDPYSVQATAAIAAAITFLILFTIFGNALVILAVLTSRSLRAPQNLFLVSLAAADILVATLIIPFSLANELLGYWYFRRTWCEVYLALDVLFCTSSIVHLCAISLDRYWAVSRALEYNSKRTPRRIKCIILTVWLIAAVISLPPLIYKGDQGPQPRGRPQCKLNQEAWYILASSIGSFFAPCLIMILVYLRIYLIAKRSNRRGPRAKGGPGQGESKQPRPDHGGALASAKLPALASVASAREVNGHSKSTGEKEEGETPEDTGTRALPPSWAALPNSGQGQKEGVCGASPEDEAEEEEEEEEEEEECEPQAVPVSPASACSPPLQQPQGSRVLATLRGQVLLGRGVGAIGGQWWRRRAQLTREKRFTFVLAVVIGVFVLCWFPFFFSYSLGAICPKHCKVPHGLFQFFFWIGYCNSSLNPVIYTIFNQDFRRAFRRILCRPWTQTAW
Procedure: To determine the potency of α1 antagonists at the α2 receptors, LM(tk−) cell lines stably transfected with the genes encoding the α2A, α2B, and α2C receptors were used. The cell line expressing the α2A receptor is designated L-α2A, and was deposited on Nov. […] The cell line expressing the α2B receptor is designated L-NGC-α2B, and was deposited on Oct. […] The cell line expressing the α2C receptor is designated L-α2C, and was deposited on Nov. […] Cell lysates were prepared as described above (see Radioligand Binding Assays), and suspended in 25 mM glycylglycine buffer (pH 7.6 at room temperature).

[2] = molecular target: T2, human α1B adrenergic receptor (Homo sapiens, UniProt P35368); test: Radioligand binding, [3H]prazosin, cloned human α1B adrenergic receptor
T2 sequence (P35368 1-520): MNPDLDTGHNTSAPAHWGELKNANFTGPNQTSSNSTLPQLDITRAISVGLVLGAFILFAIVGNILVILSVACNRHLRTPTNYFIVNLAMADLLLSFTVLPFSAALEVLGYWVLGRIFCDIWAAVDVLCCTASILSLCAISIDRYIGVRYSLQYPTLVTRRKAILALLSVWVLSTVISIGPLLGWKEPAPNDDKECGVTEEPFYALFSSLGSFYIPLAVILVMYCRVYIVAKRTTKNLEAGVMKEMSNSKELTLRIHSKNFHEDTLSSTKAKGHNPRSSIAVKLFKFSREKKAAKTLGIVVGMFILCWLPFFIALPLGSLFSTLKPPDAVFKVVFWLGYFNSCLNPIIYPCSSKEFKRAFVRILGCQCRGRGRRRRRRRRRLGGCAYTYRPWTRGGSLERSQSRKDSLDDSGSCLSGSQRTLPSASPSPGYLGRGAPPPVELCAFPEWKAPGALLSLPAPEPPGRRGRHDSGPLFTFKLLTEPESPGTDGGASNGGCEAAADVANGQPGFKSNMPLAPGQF

Row | Compound | Alpha-2 Adrenergic a2b (pK1) ([1]; Table 2, cloned human receptor) | Alpha-1 Adrenergic a1B (pK1) ([2]; Table 2, cloned human receptor) | Ki ([1]; Table 2, cloned human receptor) | also measured
1 | 4-fluoro-4-(8-fluoro-1,3,4,5-tetrahydro-2H-pyrido[4,3-b]indol-2-yl)butyrophenone hydrochloride [Compound A-30360, reference compound] |  |  |  | Alpha-2 Adrenergic a2b (pK1) [1]: 6.37; Alpha-1 Adrenergic a1B (pK1) [2]: 7.86; Human Alpha-1 Adrenergic (pK1) a1B [2]: 7.86
2 | COc1ccccc1N1CCN(CCCNc2c(C)c(=O)n(C)c(=O)n2C)CC1 [5-Methyl-Urapidil, 5-methylurapidil, reference compound] | 7.38 |  |  | Alpha-1 Adrenergic a1B (pK1) [2]: 6.77; Human Alpha-1 Adrenergic (pK1) a1B [2]: 6.77
3 | O=C(CCCN1CCC(NC(=O)c2ccccc2)CC1)c1ccc(Cl)cc1 [Compound 7] | 6.07 | 7.18 |  | Human Alpha-1 Adrenergic (pK1) a1B ([2]; Table 1, cloned human receptor): 7.18
4 | COC(=O)C1=C(C)NC(C)=C(C(=O)OCCCN2CCC(c3ccccc3)(c3ccccc3)CC2)C1c1ccc([N+](=O)[O-])cc1.Cl (stereo not drawn) [Compound 8, 2,6-Dimethyl-4-(4-nitrophenyl)-1,4-dihydropyridine-3,5-dicarboxylic acid [3-(4,4-diphenylpiperidin-1-yl)propyl] ester methyl ester hydrochloride] | 6.12 |  |  | 
5 | O=C(CCCN1CCC(NC(=O)c2ccccc2)CC1)c1ccccc1 [Compound 9] | 5.69 | 6.76 |  | Human Alpha-1 Adrenergic (pK1) a1B ([2]; Table 1, cloned human receptor): 6.76
6 | COc1ccc(CCNCC2CCc3ccccc3C2)cc1 (stereo not drawn) [Compound 11, 2-[(4-Methoxyphenethyl)aminomethyl]-1,2,3,4-tetrahydronaphthalene] |  | 7.14 | 126 nM | Ki [2]: 72.4 nM
7 | O=C(NC1CCN(CCc2c[nH]c3ccccc23)CC1)c1ccccc1 [Indoramin, reference compound] |  |  | 1910 nM | 
8 | C=Cc1sc2ccc(Cl)c3c2c1CN(C)CC3 [SKF-104856, 7-Chloro-2-ethenyl-3,4,5,6-tetrahydro-4-methylthieno[4,3,2-ef][3]benzazepine, reference compound] |  |  | 3.24 nM | 
